Source: US20080153840A1, “REDUCTION OF CARDIOVASCULAR SYMPTOMS” (priority 2006, published 2008)
Counter-ions that a name gives are not always drawn. Like-named read-outs stand apart in the source and are kept apart here.

What was measured:
anesthetized rabbits = test: clofilium-induced Torsades de Pointes in methoxamine-treated anesthetized rabbits; assay type: in vivo, rabbit
Experimental: Spontaneous TdP was induced with methoxamine (α1-adrenoceptor agonist) followed by clofilium (Ikr blocker) in anesthetized rabbits as previously described by Carlsson et al (J. Cardiovas. Pharmacol 1990; 16:276-285). RAN was given via intravenous (iv) infusion 10 min prior to clofilium. Arterial pressure (BP), lead II ECG and endocardial Monophasic Action Potential (MAP) were recorded. QT interval was corrected for heart rate by using a formula developed for rabbits: QTc=QT−0.175*(RR−300).

female rabbit hearts = test: female rabbit isolated hearts paced at 1 Hz: monophasic action potentials and 12-lead ECG
IKr = conditions: cited from earlier work
[1] = test system: slow component of the delayed rectifier K+ current; conditions: at 30 μM; cited from earlier work
[2] = test system: rabbit and guinea-pig isolated hearts and canine ventricular myocytes; conditions: cited from earlier work
[3] = test system: inward rectifier K+ current (IKI); conditions: cited from earlier work
[4] = cited from earlier work
[5] = molecular target: HERG channels expressed in HEK293 cells (Homo sapiens, UniProt Q12809); conditions: for time constant for development of block of IHERG: human
Sequence of HERG channels expressed in HEK293 cells (Q12809 whole entry): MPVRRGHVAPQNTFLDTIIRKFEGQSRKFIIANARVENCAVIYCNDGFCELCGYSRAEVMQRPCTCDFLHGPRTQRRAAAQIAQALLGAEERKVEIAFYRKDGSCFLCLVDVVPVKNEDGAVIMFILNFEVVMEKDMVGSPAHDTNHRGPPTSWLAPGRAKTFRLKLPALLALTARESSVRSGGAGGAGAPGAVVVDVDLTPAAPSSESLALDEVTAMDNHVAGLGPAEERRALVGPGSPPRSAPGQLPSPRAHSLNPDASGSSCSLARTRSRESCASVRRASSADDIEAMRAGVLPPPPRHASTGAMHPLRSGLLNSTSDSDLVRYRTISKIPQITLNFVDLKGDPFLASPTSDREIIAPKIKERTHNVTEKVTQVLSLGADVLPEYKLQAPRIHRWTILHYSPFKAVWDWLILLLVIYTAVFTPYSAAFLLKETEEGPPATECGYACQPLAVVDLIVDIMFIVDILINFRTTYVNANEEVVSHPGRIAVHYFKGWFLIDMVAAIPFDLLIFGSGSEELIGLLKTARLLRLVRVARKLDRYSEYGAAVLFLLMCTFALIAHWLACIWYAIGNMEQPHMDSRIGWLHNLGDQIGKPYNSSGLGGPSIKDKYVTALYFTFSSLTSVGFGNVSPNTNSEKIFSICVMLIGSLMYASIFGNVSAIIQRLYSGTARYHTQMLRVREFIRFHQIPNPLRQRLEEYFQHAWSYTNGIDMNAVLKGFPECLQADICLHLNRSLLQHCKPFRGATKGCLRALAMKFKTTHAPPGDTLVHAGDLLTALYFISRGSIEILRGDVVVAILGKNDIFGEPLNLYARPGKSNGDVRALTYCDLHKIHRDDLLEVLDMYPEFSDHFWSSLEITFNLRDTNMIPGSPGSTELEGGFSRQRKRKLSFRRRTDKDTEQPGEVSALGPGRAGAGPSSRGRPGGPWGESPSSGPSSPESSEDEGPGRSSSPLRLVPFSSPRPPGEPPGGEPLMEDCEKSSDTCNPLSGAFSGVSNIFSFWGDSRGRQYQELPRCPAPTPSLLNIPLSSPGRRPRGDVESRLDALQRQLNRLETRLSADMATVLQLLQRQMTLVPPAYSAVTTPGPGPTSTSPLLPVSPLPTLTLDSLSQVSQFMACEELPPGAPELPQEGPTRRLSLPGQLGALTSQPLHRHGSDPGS
Source text: Human-ether-a-go-go related gene (HERG) encodes the cardiac rapidly activating delayed rectifier K^+ current (IKr). Inhibition of HERG K^+ current (IHERG) is a mechanism for drug-induced long QT syndrome.

[6] = test system: transient outward K+ current (Ito); conditions: cited from earlier work
[7] = ranolazine 10 μM in the presence of 60 nM E-4031, n=9, p<0.01
[8] = iv infusion 10 min prior to clofilium, n=6

## CCCCCCC[N+](CC)(CC)CCCCc1ccc(Cl)cc1.[Br-] [Clofilium, 4-chloro-N,N-diethyl-N-heptyl benzenebutanaminium bromide]
Anesthetized rabbits; clofilium after methoxamine, rabbits with TdP/rabbits
  rabbits with TdP: 6/6
Anesthetized rabbits; from 123±6 ms, n=6, P<0.05
  MAPD90 after clofilium: 201 ± 21 ms
Anesthetized rabbits; from 130±4 ms, n=6, P<0.05
  QTc after clofilium: 200 ± 18 ms

## Cc1cccc(CCN2CCC(C(=O)c3ccc(NS(C)(=O)=O)cc3)CC2)n1 [E-4031, N-(4-[(1-[2-(6-methyl-2-pyridyl)ethyl]-4-piperidylcarbonyl]phenyl)methanesulfonamidedihydrochloride dehydrate]
Female rabbit hearts
  epicardial MAPD90 with drug: 254 ± 6 ms
  increase of transmural MAPD dispersion: 74 ± 7 ms
  prolongation of duration of epicardial MAP (MAPD90): 75 ± 5 ms
  transmural MAPD dispersion with drug: 90 ± 10 ms

## NC1=N[C@H](O)[C@H]2[C@H]3O[C@]4(O)O[C@@H]([C@@H](O)[C@@]2(N1)[C@@H]4O)[C@]3(O)CO [TTX, Tetrodotoxin]
Female rabbit hearts
  changes in the QRS interval: no or minimal changes
  decrease of transmural dispersion: 47 ± 11 ms
  effect on MAPD90: no effects
  effect on transmural dispersion of MAPD90: no effects
  shortening of MAPD: 33 ± 8 ms

## COc1ccccc1OCC(O)CN1CCN(CC(=O)Nc2c(C)cccc2C)CC1 (stereo not shown) [ranolazine, N-(2,6-dimethylphenyl)-4-[2-hydroxy-3-(2-methoxyphenoxy)propyl]-1-piperazineacetamide]
Female rabbit hearts
  changes in the QRS interval: no or minimal changes
Female rabbit hearts; ranolazine 10 μM
  effect on spontaneous and pause-triggered episodes of TdP induced by 60 nM E-4031: abolished
Female rabbit hearts; [7]
  decrease of transmural dispersion: 40 ± 9 ms
  shortening of MAPD90: 19 ± 5 ms
Female rabbit hearts; ranolazine 5-30 μM alone
  effect on transmural dispersion of MAPD90: without increasing
Female rabbit hearts; ranolazine 5-30 μM alone, concentration-dependent, n=7, p<0.01
  prolongation of epicardial MAPD90: 32±4%
IKr
  effect on IKr: inhibit
[1]
  inhibition of the slow component of the delayed rectifier K+ current (IKr): ~17%
Anesthetized rabbits; RAN at 25 μM, P<0.005 vs vehicle control
  occurrence of TdP: 0/6
Anesthetized rabbits; RAN at 25 μM, from 32±1 ms, n=5, P>0.05
  QRS interval: 33 ± 1 ms
Anesthetized rabbits; RAN at 25 μM, from 79±2 ms, n=5, P>0.05
  PR interval: 77 ± 1 ms
Anesthetized rabbits; RAN at 25 μM, from 186±9 bpm, n=5, P>0.05
  heart rate: 204±10 bpm
Anesthetized rabbits; [8]
  ED50 for suppression of clofilium-induced MAPD90 prolongation: 15 µM
  ED50 for suppression of clofilium-induced QTc prolongation: 10 µM
  ED50 for suppression of clofilium-induced TdP: 10 µM
[2]; at therapeutic concentrations
  increase in monophasic APD (MAPD) or QT interval: 2 to 6 ms
[2]
  pro-arrhythmic activity: not associated with pro-arrhythmic activity
[3]
  effect on IKI: no effect
[4]; in the absence of ATX-II
  effect on MAPD90: increased
[4]; in the presence of 2 nM ATX-II
  effect on MAPD: shortened
[5]
  character of block of IHERG: reversible and voltage-dependent, but frequency-independent
[5]; 10 μM
  time constant for development of block of IHERG: 76.6 ± 1.6 ms
[5]; 30 μM
  time constant for development of block of IHERG: 35.8 ± 2.4 ms
[5]; 100 μM
  time constant for development of block of IHERG: 19.4 ± 1.7 ms
[6]
  effect on Ito: no effect
